According to patent US20060198882A1, “Stable liposomes or micelles comprising a sphinolipid and a peg-lipopolymer” (priority 2003, published 2006):
Where “and” joins values, the source holds several entries; their conditions need not be identical. Equal entries are not always repeated. Where two headings read alike, the source gives them in different places.

Experiments:
[1] = Surface-pressure area isotherms; format: physicochemical; conditions: for minimal area per molecule: constant pressure of 20 mN/m; for collapse point pressure of monolayer: pure water sub-phase; for Area/molecule: table, monolayer on pure water sub-phase
Description: The tested ceramides (C2 Cer, C4 Cer, C6 Cer, C8 Cer, C16 Cer) were dried in vacuum overnight, weighted and dissolved in hexane/isopropanol (3:2 vol.) to make the following stock solutions.
The surface-pressure/area isotherms were obtained on pure water sub-phase (similar isotherms were obtained on 140 mM NaCl). Barrier speed during compression was […] for all monolayers.
The minimal area per molecule of different ceramides (C2 Cer, C4 Cer, C6 Cer, C8 Cer, C16 Cer) was calculated at the constant pressure of 20 mN/m. […] The area per molecule of C2 Cer, C4 Cer, C8 Cer, C16 Cer was about 38, 46, 45.5, and 37.5^2, respectively.

OV-1063 = test: Methylene blue assay of cell survival; format: cell-based, human; conditions: Table 8B
Text: (§1) Several tumor cell lines in monolayers were used. A human ovarian carcinoma cell line (OV-1063), established at the Hadassah University Hospital, a human colon carcinoma cell line (C-26), a DOX-sensitive M-109S ([…]), and a DOX-resistant, M-109R ([…]). All cell lines were maintained in RPMI-1640 medium supplemented with 10% FCS, antibiotics, and glutamine. All culture medium components were purchased from Biological Industries (Beit-HaEmek, Israel). Both cell lines were maintained at 37° C. in a water-jacketed CO2 incubator.
(§2) a) Various ceramides (Cer) with different chain lengths: short (C2 Cer and C4 Cer), medium (C6 Cer and C8 Cer), and long (C16 Cer) were first dissolved in 100% ethanol to a concentration of 30 mM, added to a serum-containing medium and mixed immediately. The final ethanol concentration in the serum-containing culture medium ranged from 0.1-0.5% (depending on the type of ceramide (Cer)).
(§3) b) Various ceramides with different chain lengths: short C2 Cer, medium C6 Cer, and long C16 Cer were dissolved in ethanol:dodecane (98:2 v/v) to a concentration of 30 mM and added to serum-free medium and mixed. Final concentrations of the ethanol and dodecane in the culture medium containing 10% of FCS ranged from 0.098-0.49% and 0.002-0.01%, respectively, depending on the type of ceramide.
(§4) The cytotoxicity of the examined assemblies comprising ceramide was tested by the methylene blue ([…]) staining assay [Gorodetsky, R. et al. Int. J. Cancer. 75:635-642 (1998)]. A known number of exponentially growing cells in 200 μL of medium were plated in 96-microwell, flat-bottomed plates. For each of the variants tested, 4 wells were used. Following 24 hr of incubation in culture, 20 μL of different concentrations of the examined assemblies were added to each well containing untreated cells.
(§5) The following controls were used: Citrate buffer (5 mM, pH 7); Ethanol solution in medium RPMI 1640 (final concentration of 0.1%); A solution RPMI 1640 of ethanol:dodecane (98:2 […]) at a final concentration of 0.1% and 0.2%, respectively.
(§6) Cells were exposed to assemblies for 4, 24, 72 or 96 hr. At the end of assembly exposure, for a fixed time interval, the drug-treated cells, as well as parallel control cells, were washed, and the incubation continued in fresh medium until termination of the experiment. Following 72 hr or 96 hr of growth, cells were fixed by adding 50 μL of 2.5% glutaraldehyde to each well for 15 min. Fixed cells were rinsed 10 times with deionized water and once with borate buffer (0.1 M, pH 8.5), dried, and stained with MB (100 μL of 1% solution in 0.1 M borate buffer, pH 8.5) for 1 h at room temperature (r.t.). Stained cells were rinsed thoroughly with de-ionized water to remove any non-cell-bound dye and then dried. The MB bound to the fixed cells was extracted by incubation at 37° C. with 200 μL of 0.1 N HCl for 1 h, and the net optical density of the dye in each well was determined by a plate spectrophotometer (Labsystems Multyskan Bichromatic, Finland) at 620 nm.

C-26 = test: Methylene blue assay of cell survival; format: cell-based, human; conditions: Table 8B
Text: as §1, §2, §3, §4, §5, §6

C-26 cells = test: Apoptosis by chromatin morphology (Hoechst-33342, confocal microscopy); format: cell-based, human; conditions: 24 hr
Description: (§7) a) The morphology of chromatin was assessed by staining with Hoechst-33342 obtained from Calbiochem (La Jolla, Calif.), a molecule which when reside in the minor groove of the DNA strand enhance its fluorescence intensity and, therefore, it is preferentially stains dsDNA [Jouvet, P. Mol. Biol. Cell 11:1919-1932 (2000)]. Briefly, samples containing 5*10^5 cells were cultured on 6-well plates covered with a glass coverslip. After treatment of cells with IC50 of drugs, cells were washed with PBS and fixated with 4% formaldehyde. After that cells were stained with Hoechst-33342 (5 μg/ml) and washed. Thereafter, glass coverslip was placed on a glass slide and photographed using a CLMS.

OV-1063 cells = test: as above; format: cell-based, human; conditions: 24 hr
Description: as §7

[2] = Partition in the two phases of the Dole system; format: physicochemical
Description: The distribution of the C18 sphingosine-based ceramides with different acyl chain lengths and of DMS between the polar phase and respectively less polar phase (as defined below) of the Dole two phase system was determined. […] The different ceramides included: short (C2 Cer and C4 Cer), medium (C6 Cer and C8 Cer), long (C16 Cer). […] In: Liposome Technology 2nd Edn., G Gregoriadis (Ed.) CRC Press, Boca Raton, 1993, vol. 1, pp: 527-616]. The amount of each of the lipids used in each of the two phases was measured by thin-layer chromatography (TLC). For ceramide quantification TLC was developed in a solvent system containing chloroform/methanol (95:5 v/v). For DMS quantification TLC was developed in a solvent system containing chloroform/methanol/ammonia (89/9/2 v/v). Further, the TLC plate was sprayed with Copper sulfate reagent composed of 100 g anhydrous copper sulfate containing 80 ml of phosphoric acid (85%), %) dissolved in 600 ml of DDW. Copper sulphate reagent was applied to the plates by spraying, then heated and lipids appeared as dark brown spot. […] Quantity of ceramides in each phase was calculated from a standard curve of appropriate ceramide. […] (1993)Supra]. The distribution between the two Dole system phases was determined by the equation (as exemplified for ceramide): [formula] [formula] Where Kp denotes the partition coefficient of a given lipid or amphiphile referred to in the equation as lipid; Cer denotes ceramide; up is an abbreviation for the heptane rich low polarity upper phase and lp is an abbreviation for the polar isopropanol water rich lower phase.

[3] = Partition in the two phases of the Dole system; format: physicochemical; remark: listed apart in the source
[4] = read-out: IC50 (μM), 4 hr OV-1063
[5] = read-out: IC50 (μM), 24 hr OV-1063
[6] = read-out: IC50 (μM), 72 hr OV-1063
[7] = read-out: IC50 (μM), 24 hr C-26
[8] = read-out: IC50 (μM), 72 hr C-26

Compound | monolayer stability [1] | minimal area per molecule [1] | collapse point pressure of monolayer [1] | Area/molecule [1] | IC50 (OV-1063; [4]) | IC50 (OV-1063; [5]) | IC50 (OV-1063; [6]) | IC50 (C-26; read-out: IC50 (μM), 4 hr C-26) | IC50 (C-26; [7]) | IC50 (C-26; [8]) | Apoptotic C-26 cells (% of total cell number), 24 hr (C-26 cells) | Apoptotic OV-1063 cells (% of total cell number), 24 hr (OV-1063 cells) | Kp (heptane rich/isopropanol and water rich partition coefficient) [2] | % of lipid in heptane-rich upper phase ([2]; Dole two phase system) | % of lipid in isopropanol/water lower phase ([2]; Dole two phase system) | Liposome formation (being a liposome forming lipid by itself) [3] | Kp (heptane rich/isopropanol and water rich partition coefficient) ([2]; Dole two phase system)
CCCCCCCCCCCCC/C=C/[C@@H](O)[C@H](CO)NC(=O)CCC [C4Cer, N-tetranoyl-D-erythro-sphingosine] | almost as stable as all the others | ~46 Å^2 | about 42 mN/m | 46 A^2 | 10 ± 2.7 µM | 5.9 ± 0.14 µM | 3.95 ± 0.6 µM | 15.5 ± 3.5 µM | 6.25 ± 0.35 µM | 3.75 ± 0.35 µM | 10% | 58% | 0.92 | 32% and 31.5% | 68.5% | No | –
CCCCCCCCCCCCC/C=C/[C@@H](O)[C@H](CO)NC(=O)CCCCCCC [C8Cer, N-octanoyl-D-erythro-sphingosine] | – | ~45.5 Å^2 | about 42 mN/m | 45.5 A^2 | > 40 µM | 23.7 ± 1 µM | 19 ± 1.4 µM | > 40 µM | 23 ± 1.4 µM | 21.5 ± 2.1 µM | – | – | 5.25 | 72% | 28% | No | –
Egg phosphatidylcholine [EPC] | – | – | – | – | – | – | – | – | – | – | – | – | – | 15.2% | 84.8% | Yes | 0.35
hydrogenated soybean phosphatidylcholine [HSPC] | – | – | – | – | – | – | – | – | – | – | – | – | – | 36% | 64% | Yes | 1.13
